Counter-ions that a name gives are not always drawn.
Columns and labels:
Format in all cases: cell-based
KRAS G12D = target: T1, KRAS G12D (Homo sapiens, UniProt P01116, G12D); assay: KRAS degradation activity by Cell ELISA in AsPC-1 cells (Test Example 1); details: Cell ELISA; for Dmax: ASPC1, overnight treatment, read-out: Dmax (degradation rate at the concentration showing highest degradation); for DC50: overnight treatment, read-out: DC50 (50% degradation concentration of KRAS)
T1 construct: host or cells: AsPC-1 (human pancreatic cancer line)
T1 sequence (P01116 1-188 isoform P01116-2 G12D): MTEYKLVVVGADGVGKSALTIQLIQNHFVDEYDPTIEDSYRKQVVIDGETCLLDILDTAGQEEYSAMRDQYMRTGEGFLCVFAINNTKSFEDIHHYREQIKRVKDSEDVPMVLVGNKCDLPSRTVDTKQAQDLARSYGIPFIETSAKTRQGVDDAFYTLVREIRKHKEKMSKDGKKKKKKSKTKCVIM
Experimental: The KRAS degradation activity of test compounds was evaluated by measuring the expression levels of KRAS G12D by Cell ELISA.
AsPC-1 cells were seeded at 20 μL per well on 384-well plates (from Greiner bio-one) to give 2.0×10^4 cells per well. As for the cell culture conditions, RPMI 1640 (from Sigma-Aldrich) medium containing 10% fetal bovine serum (from Cytiva) was used in the presence of 5% CO2 at 37° C.
The next day, the test compounds (10 points having final concentrations in the range of 10 μM to 0.3 nM) and DMSO (from FUJIFILM Wako Pure Chemical Corporation), which was the solvent for the test compounds, as a negative control were diluted 500-fold with a fresh medium and were added at 20 μL per well. The cells were cultured overnight. The next day, the culture supernatant was removed, and 4% paraformaldehyde phosphate buffer (from FUJIFILM Wako Pure Chemical Corporation) was added at 20 μL per well. The plates were allowed to stand for 30 minutes at room temperature to thus immobilize the cells. Then, the supernatant was removed, and 0.1% Triton X-100 (from Amersham Biosciences)-containing Phosphate buffered saline (PBS; from FUJIFILM Wako Pure Chemical Corporation) was added at 20 μL per well. After allowing to stand for 10 minutes at room temperature, the supernatant was removed. PBS was added at 25 μL per well, and the supernatant was removed to thus wash each well. The washing was performed twice in total. Next, the supernatant was removed, and 0.5% sodium dodecyl sulfate (SDS; from Invitrogen)-containing PBS was added at 20 μL per well. After allowing to stand at room temperature for 10 minutes, the supernatant was removed by a centrifugal operation (using a centrifugal dehydrator machine, the supernatant was removed by the same method hereinafter). PBS was added at 25 μL per well, and the supernatant was removed to thus wash each well. The washing was performed twice in total. The supernatant was removed, and blocking solution (Intercept Blocking Buffer; from Li—COR Biosciences) was added at 20 μL per well. After allowing to stand for 30 minutes at room temperature, the supernatant was removed, and a solution obtained by diluting anti-β-actin antibody (Anti-beta Actin antibody [mAbcam 8226]-Loading Control; from abcam) 1,000-fold with blocking solution and a solution obtained by diluting anti-Ras (G12D Mutant Specific) antibody (Ras (G12D Mutant Specific) (D8H7) Rabbit mAb #14429; from Cell Signaling Technology) and anti-β-actin antibody (from abcam) 1,000-fold with blocking solution were respectively added to positive control wells and the other wells at 15 μL per well as a primary antibody. The plates were allowed to stand overnight at 4° C.
The next day, the supernatant was removed. PBS was added at 25 μL per well, and the supernatant was removed to thus wash each well. The washing was performed twice in total. The supernatant was removed, and a solution obtained by diluting Donkey anti-Mouse IgG H&L (IRDye 680RD) (from Li—COR Biosciences) and Goat anti-Rabbit IgG H&L (IRDye 800CW) (from Li—COR Biosciences) 1,000-fold with blocking solution was added at 15 μL per well as a secondary antibody. A solution obtained by diluting Donkey anti-Mouse IgG H&L (IRDye 680RD) (from Li—COR Biosciences) 1,000-fold with blocking solution was added to a positive control well as a secondary antibody. After allowing to stand for 1 hour at room temperature, the supernatant was removed. PBS was added at […], and the supernatant was removed to thus wash each well. The washing was performed twice in total. After removing the supernatant, the plates were dried with air at room temperature for 2 hours or more, and the 700 nm and 800 nm fluorescent signals were measured with Aerius (from Li—COR Biosciences). […]

[1] = test system: phosphorylation of ERK (Thr202/Tyr204); assay: ERK phosphorylation inhibitory effect by Cell ELISA in AsPC-1 cells (Test Example 2); details: Homo sapiens, ASPC1, overnight treatment, Cell ELISA, read-out: IC50 (ERK phosphorylation inhibition)
Experimental: The ERK phosphorylation inhibitory effect of test compounds was evaluated by measuring phosphorylation of threonine 202 (Thr202) and tyrosine 204 (Tyr204) of ERK located downstream of the KRAS signal by Cell ELISA.
AsPC-1 cells were seeded on 384-well plates at 20 µL/well to give 2.0×10^4 cells per well. As for the cell culture conditions, RPMI 1640 medium containing 10% fetal bovine serum was used in the presence of 5% CO2 at 37° C.
The next day, the test compounds (10 points having final concentrations in the range of 10 μM to 0.3 nM), trametinib (MEK inhibitor) of a final concentration of […] as positive control and DMSO, which was the solvent for the test compounds, as negative control were diluted 500-fold with a fresh medium and were added at 20 μL per well. The cells were cultured overnight. After culturing, 30% glyoxal solution (40% glyoxal [from Nacalai Tesque]was diluted with PBS) was quickly added at 30 μL per well, and the plates were allowed to stand for 120 minutes at room temperature to thus immobilize the cells. Then, the plates were centrifuged to remove the supernatant (using a centrifugal dehydrator machine, the supernatant was removed by the same method hereinafter), and 0.10% Triton X-100-containing PBS was added at 20 μL per well. After allowing to stand for 10 minutes at room temperature, the supernatant was removed, and the same operation was further repeated. Next, 0.5% SDS-containing PBS was added at 20 μL per well, and after allowing to stand at room temperature for 30 minutes, the supernatant was removed. Subsequently, blocking solution (Intercept Blocking Buffer) was added at 20 μL per well, and the plates were allowed to stand for 1 hour at room temperature. The supernatant was removed, and an ERK (Thr202/Tyr204) phosphorylation antibody (Phospho-p44/42 MAPK (Erk 1/2) (Thr202/Tyr204) (D13.14.4E) XP Rabbit mAb; from Cell Signaling Technology) diluted 2,500-fold with blocking solution was added at 15 μL per well as a primary antibody. The plates were allowed to stand at 4° C. overnight.
The next day, the supernatant was removed. 0.05% Tween-20 (from Thermo Fisher Scientific)-containing PBS was added at 50 μL per well, and the supernatant was removed to thus wash each well. The washing was performed three times in total. After washing, Goat anti-Rabbit IgG H&L (IRDye 800CW) diluted 1,000-fold with blocking solution was added at 15 μL per well as a secondary antibody, and the plates were allowed to stand for 1 hour at room temperature. The supernatant was removed, and each well was washed three times with 0.05% Tween-20-containing PBS in the same manner as after the primary antibody reaction. After removing the supernatant, the plates were dried with air at room temperature for 3 hours or more, and the 800-nm fluorescent signals were measured with Aerius.
With the signaling value at the time of addition of DMSO taken as 100% and with the signaling value at the time of addition of […] trametinib taken as 0%, the 50% inhibitory concentration values (IC50) were calculated by Sigmoid-Emax nonlinear regression analysis. The calculated 50% inhibition represents the inhibition at the highest concentration evaluated (10 μM) for a compound that exceeds the concentration in the evaluation range.
In the tables presented below, Ex represents Example No. The IC50 of Ex. 13, Ex. 15, and Ex. 16 were calculated using the molecular weights as tetrahydrochloride, and the IC50 of Ex. 14 was calculated using the molecular weight as trihydrochloride.

[2] = test system: human G12D mutant KRAS-positive pancreatic cancer line AsPC-1; assay: Non-anchorage-dependent cell growth inhibitory effect, spheroid 3D culture (Test Example 3); details: ASPC1, 144 h, AsPC-1 spheroid 3D culture, 6 days, CellTiter Glo 2.0, read-out: IC50 (non-anchorage-dependent cell growth inhibition)
Summary of the method: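 AsPC-1 cells grown as spheroids in RPMI 1640 with 10% FBS at 37° C, 5% CO2, then exposed to compounds (10 μM to 0.3 nM final) for 6 days. Viability read by CellTiter Glo 2.0 luminescence. IC50 from Sigmoid-Emax regression with DMSO as 100% and cell-free medium as 0%.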

SMILES	Dmax (KRAS G12D)	DC50 (KRAS G12D)	IC50 [1]	IC50 [2]
Cc1c(F)cc2[nH]ncc2c1-c1c(C2CC2)cc2c(N3C[C@@H]4C[C@H]3CN4)nc(OC3CCOCC3)nc2c1OCc1ccc(C(=O)N2CCN(Cc3ccc4c(c3)oc(=O)n4C3CCC(=O)NC3=O)CC2)cc1 (some centres unmarked) [Example 3]	83%	0.053 µM	0.094 µM	0.12 µM
Cc1c(F)cc2[nH]ncc2c1-c1c(C2CC2)cc2c(N3C[C@@H]4C[C@H]3CN4)nc(OC3CCOCC3)nc2c1OCc1ccc(C(=O)N2CCN(Cc3ccc4c(N5CCC(=O)NC5=O)n(C)nc4c3)C[C@@H]2C)cc1 (atropisomer, axis not shown) [Example 22]	84%	0.114 µM	0.283 µM	0.128 µM
Cc1c(F)cc2[nH]ncc2c1-c1c(C2CC2)cc2c(N3C[C@@H]4C[C@H]3CN4)nc(OC3CCOCC3)nc2c1OCc1ccc(C(=O)N2CCN(Cc3ccn4c(N5CCC(=O)NC5=O)cnc4c3)C[C@@H]2C)cc1 (atropisomer, axis not shown; (M)) [Example 34, 1-(7-{[(3S)-4-{4-[({(7M)-6-cyclopropyl-4-[(1S,4S)-2,5-diazabicyclo[2.2.1]heptan-2-yl]-7-(6-fluoro-5-methyl-1H-indazol-4-yl)-2-[(oxan-4-yl)oxy]quinazolin-8-yl}oxy)methyl]benzoyl}-3-methylpiperazin-1-yl]methyl}imidazo[1,2-a]pyridin-3-yl)-1,3-diazinane-2,4-dione]	85%	0.202 µM	0.2 µM	0.476 µM
CO[C@@H](C)COc1nc(N(C)[C@@H]2CCNC2)c2cc(C3CC3)c(-c3c(C)c(F)cc4[nH]ncc34)c(OCc3ccc(C(=O)N4CCN(Cc5ccc6c(c5)n(C)c(=O)n6C5CCC(=O)NC5=O)C[C@@H]4C)cc3)c2n1 (some centres unmarked) [Example 35]	48%	3.67 µM	1.51 µM	1.11 µM
Cc1c(F)cc2[nH]ncc2c1-c1c(C2CC2)cc2c(N3C[C@@H]4C[C@H]3CN4)nc(OC3CCOCC3)nc2c1OCc1ccc(C(=O)N2CCC(CNc3cccc4c3C(=O)N(C3CCC(=O)NC3=O)C4=O)CC2)cc1 (some centres unmarked) [Example 30]	71%	1.48 µM	1.28 µM	1.44 µM
Cc1c(F)cc2[nH]ncc2c1-c1c(C2CC2)cc2c(N3C[C@@H]4C[C@H]3CN4)nc(OC[C@@H]3CCCO3)nc2c1OCc1ccc(C(=O)N2CCN(Cc3ccc4c(c3)n(C)c(=O)n4C3CCC(=O)NC3=O)C[C@@H]2C)cc1 (some centres unmarked) [Example 40]	88%	0.023 µM	0.03 µM	0.046 µM
Cc1c(F)cc2[nH]ncc2c1-c1c(C2CC2)cc2c(N3C[C@@H]4C[C@H]3CN4)nc(OC[C@H]3CCCO3)nc2c1OCc1ccc(C(=O)N2CCN(Cc3ccc4c(c3)n(C)c(=O)n4C3CCC(=O)NC3=O)C[C@@H]2C)cc1 (some centres unmarked) [Example 37]	87%	0.03 µM	0.041 µM	0.064 µM
Cc1c(F)cc2[nH]ncc2c1-c1c(C2CC2)cc2c(N3C[C@@H]4C[C@H]3CN4)nc(OC3CCOCC3)nc2c1OCc1ccc(C(=O)N2CCN(Cc3ccc4c(c3)n(C)c(=O)n4C3CCC(=O)NC3=O)CC2)cc1 (some centres unmarked) [Example 7]	80%	0.035 µM	0.06 µM	0.073 µM
Cc1nc(OC2CCN(C(=O)c3ccc(COc4c(-c5c(C)c(F)cc6[nH]ncc56)c(C5CC5)cc5c(N6C[C@@H]7C[C@H]6CN7)nc(OC6CCOCC6)nc45)cc3)CC2)ccc1N1CCC(=O)NC1=O (atropisomer, axis not shown) [Example 17]	52%	4.27 µM	1.34 µM	0.684 µM
Cc1c(F)cc2[nH]ncc2c1-c1c(C2CC2)cc2c(N3C[C@@H]4C[C@H]3CN4)nc(OC3CCOCC3)nc2c1OCc1ccc(C(=O)N2CCN(Cc3cccc4c(N5CCC(=O)NC5=O)nn(C)c34)CC2)cc1 (atropisomer, axis not shown) [Example 23]	61%	2.81 µM	1.56 µM	1.09 µM
Cc1c(F)cc2[nH]ncc2c1-c1c(C2CC2)cc2c(N3C[C@@H]4C[C@H]3CN4)nc(OC3CCOCC3)nc2c1OCc1ccc(C(=O)N2CCN(Cc3ccc4c(N5CCC(=O)NC5=O)nn(C)c4c3)C[C@@H]2C)cc1 (atropisomer, axis not shown; (M)) [Example 16, 1-(6-{[(3S)-4-{4-[({(7M)-6-cyclopropyl-4-[(1S,4S)-2,5-diazabicyclo[2.2.1]heptan-2-yl]-7-(6-fluoro-5-methyl-1H-indazol-4-yl)-2-[(oxan-4-yl)oxy]quinazolin-8-yl}oxy)methyl]benzoyl}-3-methylpiperazin-1-yl]methyl}-1-methyl-1H-indazol-3-yl)-1,3-diazinane-2,4-dione n hydrochloride]	86%	0.071 µM	0.158 µM	0.073 µM

— patent US20250145631A1, “HETEROCYCLIC COMPOUND ACTING ON G12D MUTANT KRAS PROTEIN” (Astellas Pharma Inc., priority 2022, published 2025)
